Experimental data from patent publication US11548870B2, “Compounds useful as inhibitors of helios protein” (Bristol-Myers Squibb Company, priority 2019, dated 2023).
Where two headings read alike, the source gives them in different places.

Experiments:
Ikaros = biological target: T1, Ikaros (Homo sapiens, UniProt Q13422); assay: Helios Cellular Degradation Assay, Ikaros readout (flow cytometry, Ikaros-Alexa488 antibody staining, 72 h); assay type: cell-based; conditions: Jurkat cells, 72 h incubation, flow cytometry; for Dmax: Jurkat, read-out: Ikaros Dmax
T1 construct: fluorescently labelled antibodies against Helios and Ikaros; endogenous in cells; host or cells: Jurkat cells
How it was run: (§1)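 Jurkat cells (80,000/well, RPMI+10% FBS) were exposed to compound for 72 h at 37 °C, then fixed, permeabilized and co-stained for 1 h with Ikaros-Alexa488 and Helios-PE antibodies. Intracellular protein levels were read by flow cytometry.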

Helios = biological target: T2, Helios (Homo sapiens, UniProt Q96SW2+Q9UKS7); assay: Helios Cellular Degradation Assay (flow cytometry, Helios-PE antibody staining, 72 h); assay type: cell-based; conditions: for Dmax: Jurkat, read-out: Helios Dmax
T2 construct: fluorescently labelled antibodies against Helios and Ikaros; endogenous in cells; host or cells: Jurkat cells
How it was run: as §1

[1] = Jurkat cells, 72 h incubation, flow cytometry

T1 sequence (Q96SW2 whole entry partner): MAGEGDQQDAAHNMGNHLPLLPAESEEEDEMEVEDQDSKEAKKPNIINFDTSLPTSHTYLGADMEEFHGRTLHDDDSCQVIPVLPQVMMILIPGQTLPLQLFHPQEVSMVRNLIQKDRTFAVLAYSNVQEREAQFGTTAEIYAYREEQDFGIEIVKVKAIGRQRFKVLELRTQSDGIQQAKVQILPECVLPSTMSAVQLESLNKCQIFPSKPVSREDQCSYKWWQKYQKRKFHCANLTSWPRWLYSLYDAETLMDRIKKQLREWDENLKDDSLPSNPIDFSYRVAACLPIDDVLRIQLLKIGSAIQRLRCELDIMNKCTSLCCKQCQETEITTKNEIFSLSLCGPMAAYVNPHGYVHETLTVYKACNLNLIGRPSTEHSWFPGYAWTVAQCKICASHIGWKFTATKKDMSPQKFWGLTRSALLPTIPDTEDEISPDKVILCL
T1 sequence (Q16531 whole entry partner): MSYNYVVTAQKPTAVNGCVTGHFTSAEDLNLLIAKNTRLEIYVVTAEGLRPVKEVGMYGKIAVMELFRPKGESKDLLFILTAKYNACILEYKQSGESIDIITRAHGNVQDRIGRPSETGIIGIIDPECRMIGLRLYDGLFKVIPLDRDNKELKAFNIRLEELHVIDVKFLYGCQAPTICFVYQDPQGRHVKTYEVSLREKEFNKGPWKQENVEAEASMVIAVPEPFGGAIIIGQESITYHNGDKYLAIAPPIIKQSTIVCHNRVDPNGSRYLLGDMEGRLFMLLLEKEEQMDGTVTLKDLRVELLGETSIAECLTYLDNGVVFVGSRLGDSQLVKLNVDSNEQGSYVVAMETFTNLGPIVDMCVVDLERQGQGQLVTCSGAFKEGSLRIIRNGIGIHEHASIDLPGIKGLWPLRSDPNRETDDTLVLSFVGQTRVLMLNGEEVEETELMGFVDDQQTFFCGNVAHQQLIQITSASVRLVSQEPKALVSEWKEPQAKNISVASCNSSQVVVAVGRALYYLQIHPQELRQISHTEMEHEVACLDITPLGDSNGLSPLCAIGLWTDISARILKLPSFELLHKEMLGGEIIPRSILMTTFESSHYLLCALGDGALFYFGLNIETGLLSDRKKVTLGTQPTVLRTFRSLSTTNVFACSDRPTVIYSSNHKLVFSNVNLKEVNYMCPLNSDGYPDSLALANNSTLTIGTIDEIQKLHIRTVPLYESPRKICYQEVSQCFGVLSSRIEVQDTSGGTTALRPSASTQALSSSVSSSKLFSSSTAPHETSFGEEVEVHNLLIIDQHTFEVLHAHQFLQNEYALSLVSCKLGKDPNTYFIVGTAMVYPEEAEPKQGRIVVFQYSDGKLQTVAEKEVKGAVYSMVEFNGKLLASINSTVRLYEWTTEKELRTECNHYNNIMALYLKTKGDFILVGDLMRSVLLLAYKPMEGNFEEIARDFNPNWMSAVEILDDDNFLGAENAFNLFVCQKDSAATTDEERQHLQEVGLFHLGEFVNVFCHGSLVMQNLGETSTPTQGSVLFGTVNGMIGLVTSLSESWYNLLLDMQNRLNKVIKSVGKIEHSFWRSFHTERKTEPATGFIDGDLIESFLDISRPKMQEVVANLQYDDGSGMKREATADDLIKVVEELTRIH
T1 sequence (Q13422 whole entry): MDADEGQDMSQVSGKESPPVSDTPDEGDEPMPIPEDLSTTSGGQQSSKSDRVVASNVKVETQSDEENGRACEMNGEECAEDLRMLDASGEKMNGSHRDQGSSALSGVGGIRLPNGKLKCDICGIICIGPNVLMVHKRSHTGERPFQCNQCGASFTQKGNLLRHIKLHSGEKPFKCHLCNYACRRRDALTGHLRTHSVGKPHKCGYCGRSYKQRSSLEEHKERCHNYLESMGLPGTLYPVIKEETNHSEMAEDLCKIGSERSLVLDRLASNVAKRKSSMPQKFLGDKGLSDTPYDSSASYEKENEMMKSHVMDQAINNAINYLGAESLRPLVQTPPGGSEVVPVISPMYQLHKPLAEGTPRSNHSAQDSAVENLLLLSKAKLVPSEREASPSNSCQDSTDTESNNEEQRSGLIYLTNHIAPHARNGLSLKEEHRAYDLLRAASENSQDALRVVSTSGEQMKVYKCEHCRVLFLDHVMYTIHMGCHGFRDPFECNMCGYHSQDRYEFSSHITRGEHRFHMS
T2 sequence (Q9UKS7 whole entry): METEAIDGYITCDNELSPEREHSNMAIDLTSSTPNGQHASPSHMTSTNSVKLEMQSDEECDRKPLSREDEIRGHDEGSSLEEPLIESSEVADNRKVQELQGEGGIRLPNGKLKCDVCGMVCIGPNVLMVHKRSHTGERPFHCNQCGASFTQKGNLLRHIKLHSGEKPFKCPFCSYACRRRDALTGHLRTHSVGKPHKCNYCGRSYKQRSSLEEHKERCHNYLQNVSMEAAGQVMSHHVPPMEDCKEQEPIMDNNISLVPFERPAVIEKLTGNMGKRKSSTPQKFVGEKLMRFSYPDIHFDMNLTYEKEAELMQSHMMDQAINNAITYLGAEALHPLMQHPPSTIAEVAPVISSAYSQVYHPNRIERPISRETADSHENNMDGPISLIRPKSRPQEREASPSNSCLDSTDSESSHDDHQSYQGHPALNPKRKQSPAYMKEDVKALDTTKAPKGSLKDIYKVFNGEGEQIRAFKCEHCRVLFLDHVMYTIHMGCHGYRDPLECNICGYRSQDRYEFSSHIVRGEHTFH
T2 sequence (Q96SW2 whole entry): as the sequence (Q96SW2 whole entry partner) above
T2 sequence (Q16531 whole entry partner): as the sequence (Q16531 whole entry partner) above

Structure (SMILES) | DC50 (Ikaros) [nM] | Dmax (Ikaros) [%] | DC50 (Helios; [1]) [nM] | Dmax (Helios; [1]) [%] | Dmax (Helios) [%]
O=C1CCC(N2Cc3cc(-c4cc(CNCCOc5ccccc5)ccn4)ccc3C2=O)C(=O)N1 (stereo not drawn) [Example 103, 3-(1-oxo-5-(4-(((2-phenoxyethyl)amino)methyl)pyridin-2-yl)isoindolin-2-yl)piperidine-2,6-dione] | > 10000 | 1 | 36 | 95 | –
O=C1CCC(N2Cc3cc(-c4cc(CNC5CCN(Cc6ccccc6)C5)ccn4)ccc3C2=O)C(=O)N1 (stereo not drawn) [Example 104, 3-(5-(4-(((1-benzylpyrrolidin-3-yl)amino)methyl)pyridin-2-yl)-1-oxoisoindolin-2-yl) piperidine-2,6-dione] | > 10000 | 1 | > 10000 | 44 | –
NC(=O)CCNCc1ccnc(-c2ccc3c(c2)CN(C2CCC(=O)NC2=O)C3=O)c1 (stereo not drawn) [Example 105, 3-(((2-(2-(2,6-dioxopiperidin-3-yl)-1-oxoisoindolin-5-yl)pyridin-4-yl)methyl)amino)propanamide] | > 10000 | 5 | 264 | 79 | –
O=C1CCC(N2Cc3cc(-c4cc(CNCCc5nc6ccccc6s5)ccn4)ccc3C2=O)C(=O)N1 (stereo not drawn) [Example 106, 3-(5-(4-(((2-(benzo[d]thiazol-2-yl)ethyl)amino)methyl)pyridin-2-yl)-1-oxoisoindolin-2-yl)piperidine-2,6-dione] | > 10000 | 12 | 72 | 79 | –
CN(C)C1CCC(NCc2ccnc(-c3ccc4c(c3)CN(C3CCC(=O)NC3=O)C4=O)c2)CC1 (stereo not drawn) [Example 107, 3-(5-(4-(((4-(dimethylamino)cyclohexyl)amino)methyl)pyridin-2-yl)-1-oxoisoindolin-2-yl) piperidine-2,6-dione] | > 10000 | 15 | 494 | 80 | –
O=C1CCC(N2Cc3cc(-c4cc(CNC5CCC5)ccn4)ccc3C2=O)C(=O)N1 (stereo not drawn) [Example 108, 3-(5-(4-((cyclobutylamino)methyl)pyridin-2-yl)-1-oxoisoindolin-2-yl)piperidine-2,6-dione] | > 10000 | 15 | 45 | 84 | –
O=C1CCC(N2Cc3cc(-c4cc(CNC5CC5)ccn4)ccc3C2=O)C(=O)N1 (stereo not drawn) [Example 109, 3-(5-(4-((cyclopropylamino)methyl)pyridin-2-yl)-1-oxoisoindolin-2-yl)piperidine-2,6-dione] | > 10000 | 15 | 48 | 75 | –
O=C1CCC(N2Cc3cc(-c4cc(CNCc5csc(-c6ccccc6)n5)ccn4)ccc3C2=O)C(=O)N1 (stereo not drawn) [Example 110, 3-(1-oxo-5-(4-((((2-phenylthiazol-4-yl)methyl)amino)methyl)pyridin-2-yl)isoindolin-2-yl)piperidine-2,6-dione] | > 10000 | 7 | 48 | 71 | –
O=C1CCC(N2Cc3cc(-c4cc(CN[C@@H]5C[C@H]5c5ccccc5)ccn4)ccc3C2=O)C(=O)N1 (stereo partly drawn) [Example 111, 3-(1-oxo-5-(4-((((1R,2S)-2-phenylcyclopropyl)amino)methyl)pyridin-2-yl)isoindolin-2-yl)piperidine-2,6-dione] | > 10000 | 10 | 137 | 75 | –
COC(=O)CCNCc1ccnc(-c2ccc3c(c2)CN(C2CCC(=O)NC2=O)C3=O)c1 (stereo not drawn) [Example 112, methyl 3-(((2-(2-(2,6-dioxopiperidin-3-yl)-1-oxoisoindolin-5-yl)pyridin-4-yl)methyl)amino)propanoate] | > 10000 | 2 | 921 | 74 | –
O=C1CCC(N2Cc3cc(-c4cc(CNCCCn5ccnc5)ccn4)ccc3C2=O)C(=O)N1 (stereo not drawn) [Example 113, 3-(5-(4-(((3-(1H-imidazol-1-yl)propyl)amino)methyl)pyridin-2-yl)-1-oxoisoindolin-2-yl)piperidine-2,6-dione] | > 10000 | 8 | 287 | 81 | –
O=C1CCC(N2Cc3cc(-c4cc(CNCCCN5CCOCC5)ccn4)ccc3C2=O)C(=O)N1 (stereo not drawn) [Example 114, 3-(5-(4-(((3-morpholinopropyl)amino)methyl)pyridin-2-yl)-1-oxoisoindolin-2-yl)piperidine-2,6-dione] | > 10000 | 2 | 63 | 83 | –
O=C1CCC(N2Cc3cc(-c4cc(CNCCCN5CCCC5=O)ccn4)ccc3C2=O)C(=O)N1 (stereo not drawn) [Example 115, 3-(1-oxo-5-(4-(((3-(2-oxopyrrolidin-1-yl)propyl)amino)methyl)pyridin-2-yl)isoindolin-2-yl)piperidine-2,6-dione] | > 10000 | 6 | 528 | 78 | –
CCNCc1ccnc(-c2ccc3c(c2)CN(C2CCC(=O)NC2=O)C3=O)c1 (stereo not drawn) [Example 116, 3-(5-(4-((ethylamino)methyl)pyridin-2-yl)-1-oxoisoindolin-2-yl)piperidine-2,6-dione] | > 10000 | 12 | 25 | 88 | –
CC1(C)CCCN1Cc1ccnc(-c2ccc3c(c2)CN(C2CCC(=O)NC2=O)C3=O)c1 (stereo not drawn) [Example 117, 3-(5-(4-((2,2-dimethylpyrrolidin-1-yl)methyl)pyridin-2-yl)-1-oxoisoindolin-2-yl)piperidine-2,6-dione] | > 10000 | 3 | 53 | 77 | –
CC1(C)CCN(Cc2ccnc(-c3ccc4c(c3)CN(C3CCC(=O)NC3=O)C4=O)c2)C1 (stereo not drawn) [Example 118, 3-(5-(4-((3,3-dimethylpyrrolidin-1-yl)methyl)pyridin-2-yl)-1-oxoisoindolin-2-yl)piperidine-2,6-dione] | > 10000 | 12 | 11 | 90 | –
CC1CCC(C)N1Cc1ccnc(-c2ccc3c(c2)CN(C2CCC(=O)NC2=O)C3=O)c1 (stereo not drawn) [Example 119, 3-(5-(4-((2,5-dimethylpyrrolidin-1-yl)methyl)pyridin-2-yl)-1-oxoisoindolin-2-yl)piperidine-2,6-dione] | > 10000 | 3 | 2360 | 53 | –
C[C@@H]1CCC[C@H](C)N1Cc1ccnc(-c2ccc3c(c2)CN(C2CCC(=O)NC2=O)C3=O)c1 (stereo partly drawn) [Example 120, 3-(5-(4-(((2R,6S)-2,6-dimethylpiperidin-1-yl)methyl)pyridin-2-yl)-1-oxoisoindolin-2-yl)piperidine-2,6-dione] | > 10000 | 3 | 85 | 84 | –
CC1(c2ccc(N)cc2)CCN(Cc2ccnc(-c3ccc4c(c3)CN(C3CCC(=O)NC3=O)C4=O)c2)CC1 (stereo not drawn) [Example 121, 3-(5-(4-((4-(4-aminophenyl)-4-methylpiperidin-1-yl)methyl)pyridin-2-yl)-1-oxoisoindolin-2-yl)piperidine-2,6-dione] | > 10000 | 19 | 24 | – | 77
C[C@@H](NCc1ccnc(-c2ccc3c(c2)CN(C2CCC(=O)NC2=O)C3=O)c1)c1ccccc1 (stereo partly drawn) [Example 122, 3-(1-oxo-5-(4-((((R)-1-phenylethyl)amino)methyl)pyridin-2-yl)isoindolin-2-yl)piperidine-2,6-dione] | > 10000 | 4 | 14 | 88 | –
C[C@H](NCc1ccnc(-c2ccc3c(c2)CN(C2CCC(=O)NC2=O)C3=O)c1)c1ccccc1 (stereo partly drawn) [Example 123, 3-(1-oxo-5-(4-((((S)-1-phenylethyl)amino)methyl)pyridin-2-yl)isoindolin-2-yl) piperidine-2,6-dione] | > 10000 | 8 | 7 | 92 | –
O=C1CCC(N2Cc3cc(-c4cc(CNCC5(O)CCCCC5)ccn4)ccc3C2=O)C(=O)N1 (stereo not drawn) [Example 124, 3-(5-(4-((((1-hydroxycyclohexyl)methyl)amino)methyl)pyridin-2-yl)-1-oxoisoindolin-2-yl)piperidine-2,6-dione] | > 10000 | 11 | 58 | 95 | –
C[C@@H]1CCCN1Cc1ccnc(-c2ccc3c(c2)CN(C2CCC(=O)NC2=O)C3=O)c1 (stereo partly drawn) [Example 125, 3-(5-(4-(((R)-2-methylpyrrolidin-1-yl)methyl)pyridin-2-yl)-1-oxoisoindolin-2-yl) piperidine-2,6-dione] | > 10000 | 8 | 16 | 93 | –
CC1CC(NCc2ccnc(-c3ccc4c(c3)CN(C3CCC(=O)NC3=O)C4=O)c2)CCO1 (stereo not drawn) [Example 126, 3-(5-(4-(((2-methyltetrahydro-2H-pyran-4-yl)amino)methyl)pyridin-2-yl)-1-oxoisoindolin-2-yl) piperidine-2,6-dione] | > 10000 | 22 | 82 | 99 | –
O=C1CCC(N2Cc3cc(-c4cc(CN5CCC6(CC5)CC6)ccn4)ccc3C2=O)C(=O)N1 (stereo not drawn) [Example 127, 3-(5-(4-((6-azaspiro[2.5]octan-6-yl)methyl)pyridin-2-yl)-1-oxoisoindolin-2-yl)piperidine-2,6-dione] | > 10000 | 6 | 35 | 84 | –
O=C1CCC(N2Cc3cc(-c4cc(CNCCCCO)ccn4)ccc3C2=O)C(=O)N1 (stereo not drawn) [Example 128, 3-(5-(4-(((4-hydroxybutyl)amino)methyl)pyridin-2-yl)-1-oxoisoindolin-2-yl)piperidine-2,6-dione] | > 10000 | 28 | 93 | 94 | –
O=C1CCC(N2Cc3cc(-c4cc(CNCC5CCO5)ccn4)ccc3C2=O)C(=O)N1 (stereo not drawn) [Example 129, 3-(5-(4-(((oxetan-2-ylmethyl)amino)methyl)pyridin-2-yl)-1-oxoisoindolin-2-yl)piperidine-2,6-dione] | > 10000 | 2 | 232 | 74 | –
